Experimental data from publication PMC2965585 (Bioorganic & medicinal chemistry letters, 2010).

What was measured:
[1] = target: anthrax lethal factor (LF) (Bacillus anthracis, UniProt P15917); assay type: biochemical
[2] = system: Lethal Toxin (LT; PA + LF); design: species or system Fischer 344 rats; details: rat, in vivo

Chain of anthrax lethal factor (LF) (P15917 34-809 limits assumed): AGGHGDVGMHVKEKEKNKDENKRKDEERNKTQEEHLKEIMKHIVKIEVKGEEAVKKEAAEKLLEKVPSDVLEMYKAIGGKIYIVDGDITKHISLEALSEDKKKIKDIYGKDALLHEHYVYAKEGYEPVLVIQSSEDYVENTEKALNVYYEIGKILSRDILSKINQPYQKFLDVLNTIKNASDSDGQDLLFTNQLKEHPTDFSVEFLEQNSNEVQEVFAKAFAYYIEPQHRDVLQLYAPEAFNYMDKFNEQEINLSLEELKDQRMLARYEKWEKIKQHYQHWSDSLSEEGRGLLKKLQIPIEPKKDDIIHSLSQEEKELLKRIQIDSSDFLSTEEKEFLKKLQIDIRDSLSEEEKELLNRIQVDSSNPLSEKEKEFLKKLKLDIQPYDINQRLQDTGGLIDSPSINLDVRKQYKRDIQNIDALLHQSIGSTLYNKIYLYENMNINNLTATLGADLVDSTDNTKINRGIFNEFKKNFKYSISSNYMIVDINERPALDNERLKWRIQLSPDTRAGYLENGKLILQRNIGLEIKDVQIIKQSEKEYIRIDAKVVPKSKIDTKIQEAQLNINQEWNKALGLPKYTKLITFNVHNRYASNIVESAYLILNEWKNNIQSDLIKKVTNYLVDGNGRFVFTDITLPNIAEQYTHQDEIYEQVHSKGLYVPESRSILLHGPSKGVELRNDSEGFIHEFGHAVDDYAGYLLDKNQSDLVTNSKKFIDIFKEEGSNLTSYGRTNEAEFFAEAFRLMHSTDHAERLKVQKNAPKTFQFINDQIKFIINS

SMILES	mode of inhibition (kinetic studies) [1]	protection [2]	protection (percent survival) [2] [%]	time after treatment with LT at which animals became ill ([2]; 2.5 mg/kg)	time post exposure by which animals appeared fully recovered ([2]; 2.5 mg/kg) [h]
CO[C@H](C[C@H](CCN(C)CCCc1ccc(F)c(C)c1)C(=O)NO)c1ccc(F)cc1 [Compound 40]	competitive behavior				
Cc1cc(CNCCCC[C@@H](Nc2cc(C)c(F)c(C)c2)C(=O)NO)ccc1F [Compound 16]		fully protective	100	approximately 3 hours	≤ 24
